Test results reported in patent publication US20170291882A1, “Solid Forms of Mirabegron” (Apotex Inc., priority 2014, published 2017).
Values after ≈ are worked out from the molar mass of the structure shown. Like-named read-outs stand apart in the source and are kept apart here. One block for each molecule: values may come before it.

Assays:
[1] = cited from earlier work; for hygroscopicity (in words): as disclosed in CA 2 464 068 C
[2] = Solubility testing of forms of Mirabegron (suspension stirred at room temperature, supernatant dried to constant weight); type: physicochemical
Description: Solubility testing was conducted by preparing a suspension of the subject form of Mirabegron in the indicated solvent and stirring the suspension for the indicated time period at room temperature. After this time, excess solid was removed by filtration and the volume of the supernatant was recorded. The supernatant was concentrated in vacuo and dried to constant weight to afford a solid. The solubility is shown as the weight of solid/volume of supernatant in mg/mL. The α-form and β-form of Mirabegron refer to the forms as characterized in CA 2 464 068 C.
Phosphate buffer was prepared by dissolving potassium dihydrogen phosphate (340 mg) and disodium hydrogen phosphate (353 mg) in deionized water (100 mL).

[3] = Hygroscopicity testing (desiccator with saturated ammonium sulphate solution, 25° C., 24 hours); type: physicochemical; conditions: 1 g, unstoppered vessel over saturated ammonium sulphate solution
Description: The hygroscopicity testing was conducted by placing 1 g of form APO-I Mirabegron in an unstoppered weighing vessel in a desiccator containing a saturated ammonium sulphate solution. The desiccator was placed in an oven at 25° C. for 24 hours. After this time, the percentage increase in mass was 0.89%.

Solubility ([2]; 0.1M HCl, 2 hours): 13.0 mg/mL (≈ 32.8 mM)
Solubility ([2]; Distilled water, 2 hours, listed as α): 0.2 mg/mL (≈ 0.504 mM)
Solubility ([2]; Ethanol (denatured), 0.5 hours, listed as α): 21.3 mg/mL (≈ 53.7 mM)
Solubility ([2]; Phosphate buffer (pH 6.8), 2 hours, listed as α): 2.5 mg/mL (≈ 6.3 mM)
SMILES: Nc1nc(CC(=O)Nc2ccc(CCNC[C@H](O)c3ccccc3)cc2)cs1 [Form α, (R)-2-(2-aminothiazol-4-yl)-4′-[2-[(2-hydroxy-2-phenylethyl)amino]ethyl]acetanilide]
hygroscopicity (in words) ([1]; listed as α-form crystal): no hygroscopicity

Solubility ([2]; Ethanol (denatured), 0.5 hours, listed as β): 27.2 mg/mL (≈ 68.6 mM)
SMILES: Nc1nc(CC(=O)Nc2ccc(CCNC[C@H](O)c3ccccc3)cc2)cs1 [Form β, (R)-2-(2-aminothiazol-4-yl)-4′-[2-[(2-hydroxy-2-phenylethyl)amino]ethyl]acetanilide]
hygroscopicity (in words) ([1]; listed as β-form crystal): relatively low hygroscopicity
moisture held (hygroscopic) ([1]; reported in CA 2 464 068 C): up to 3%

percentage increase in mass [3]: 0.89%
solubility at 2 h ([2]; 0.1M HCl, simulated gastric fluid, thermodynamic from solid, 2 hours): 15 mg/mL (≈ 37.8 mM)
Solubility ([2]; Distilled water, 2 hours, listed as APO-I): 0.5 mg/mL (≈ 1.26 mM)
Solubility ([2]; Ethanol (denatured), 0.5 hours, listed as APO-I): 62.8 mg/mL (≈ 158 mM)
Solubility ([2]; Phosphate buffer (pH 6.8), 2 hours, listed as APO-I): 6.2 mg/mL (≈ 15.6 mM)
SMILES: Nc1nc(CC(=O)Nc2ccc(CCNC[C@H](O)c3ccccc3)cc2)cs1 [Form APO-I, Mirabegron]
